What was measured:
[1] = system: U2OS; assay: Incucyte cell viability with U2OS; assay type: toxicity, cell-based; settings: human, 10 µM, compound concentration 10 uM
[2] = system: HEK-293T; assay: Incucyte cell viability with HEK293T; assay type: toxicity, cell-based; settings: human, 10 µM, compound concentration 10 uM
[3] = 0 h, replicate number 1, timepoint 0 hours
[4] = 6 h, replicate number 1, timepoint 6 hours
[5] = 12 h, replicate number 1, timepoint 12 hours
[6] = 12 h, replicate number 2, timepoint 12 hours
[7] = 18 h, replicate number 1, timepoint 18 hours
[8] = 24 h, replicate number 1, timepoint 24 hours
[9] = 0 h, replicate number 2, timepoint 0 hours
[10] = 18 h, replicate number 2, timepoint 18 hours
[11] = 24 h, replicate number 2, timepoint 24 hours
[12] = 6 h, replicate number 2, timepoint 6 hours
Note: filed as whole numbers so only -1 and 0 and 1 occur.

Compound	Growth Rate [1, 3]	Growth Rate [1, 4]	Growth Rate [1, 5]	Growth Rate [1, 6]	Growth Rate [1, 7]	Growth Rate [1, 8]	Growth Rate [2, 9]	Growth Rate [2, 4]	Growth Rate [2, 5]	Growth Rate [2, 7]	Growth Rate [2, 8]	Growth Rate [1, 9]	Growth Rate [1, 10]	Growth Rate [1, 11]	Growth Rate [2, 3]	Growth Rate [1, 12]	Growth Rate [2, 12]	Growth Rate [2, 6]	Growth Rate [2, 11]
O=C(Nc1cccnn1)N1CCC(=Cc2cccc(Oc3ccc(C(F)(F)F)cn3)c2)CC1	0	0	0	1	0	0	1	0	0	0	0	–	–	–	–	–	–	–	–
O=C1N/C(=N/c2ccccc2F)S/C1=C\c1ccc(C(=O)O)cc1	0	–	1	0	1	1	–	–	1	–	1	1	0	0	–	–	–	–	–
CCCS(=O)(=O)Nc1ccc(F)c(C(=O)c2c[nH]c3ncc(Cl)cc23)c1F [PLX-4720]	0	1	0	1	0	0	1	0	0	0	0	–	–	–	0	–	–	–	–
CN(C)C(=O)C(CCN1CCC(O)(c2ccc(Cl)cc2)CC1)(c1ccccc1)c1ccccc1.Cl [LOPERAMIDE HYDROCHLORIDE]	–	0	0	–	0	0	1	0	0	0	0	–	–	–	–	–	–	–	–
O=C(Nc1ccc(-c2ccnc(Nc3ccc(N4CCOCC4)cc3)n2)cc1)[C@@H]1CCCN1	–	–	1	–	1	1	–	0	0	0	0	0	–	–	1	–	–	–	–
CN([C@@H](Cc1ccc(OS(=O)(=O)c2cccc3cnccc23)cc1)C(=O)N1CCN(c2ccccc2)CC1)S(=O)(=O)c1cccc2cnccc12	–	1	1	–	1	1	1	0	0	0	0	0	–	–	–	–	–	–	–
CN1CCN(C(=O)C(C)(C)c2ccc(C(=O)Nc3cn4cc(-c5ccncc5)ccc4n3)cc2)CC1 [T3-CLK]	–	1	0	1	0	0	1	0	0	0	0	0	1	1	–	–	–	–	–
Cl.O=c1c2cccn2c2ccccc2n1CCCN1CCC(c2ccc(Cl)cc2)CC1	–	–	–	1	1	1	–	0	0	0	0	0	–	–	0	–	–	–	–
CN1CCC(=C2c3ccccc3CC(=O)c3sccc32)CC1.O=C(O)/C=C/C(=O)O [KETOTIFEN FUMARATE]	1	–	1	–	1	1	1	0	0	0	0	–	–	0	–	0	–	–	–
CCOc1cc2ncc(C#N)c(Nc3ccc(OCc4ccccn4)c(Cl)c3)c2cc1NC(=O)/C=C/CN(C)C [NERATINIB]	–	0	0	–	0	0	–	0	0	0	0	0	–	–	0	1	–	–	–
CCCn1c(=O)c2[nH]c(-c3cnn(Cc4cccc(C(F)(F)F)c4)c3)nc2n(CC)c1=O [GS 6201]	0	–	–	1	1	1	0	0	0	0	0	–	0	0	1	–	1	1	–
CCOC(=O)c1c(C)[nH]c2ccc3c(c12)CN1CCc2cc(OC)ccc2C1O3 (stereo not given)	1	–	0	–	0	0	0	0	0	0	0	–	–	–	–	1	–	–	–
COc1ccc(S(=O)(=O)N(CCO)c2ccccc2CN(C)C/C=C/c2ccc(Cl)cc2)cc1.O=P(O)(O)O	0	0	0	1	0	0	–	0	0	0	0	1	–	–	–	1	–	–	–
Cc1ccc(C(=O)Nc2cccc(C(F)(F)F)c2)cc1Nc1nc(-c2cccnc2)nc2c1cnn2C	–	0	0	–	0	0	–	0	0	0	0	–	–	–	0	–	–	–	–
Cc1cn(-c2cc(NC(=O)c3ccc(C)c(Nc4nccc(-c5cccnc5)n4)c3)cc(C(F)(F)F)c2)cn1 [NILOTINIB]	–	0	0	–	0	0	–	0	1	1	0	0	1	1	0	–	–	0	1
CN1CCN(C(=O)C(C)(C)c2ccc(C(=O)Nc3cn4cc(-c5cc(C(C)(C)C)cc(C(C)(C)C)c5)ccc4n3)cc2)CC1 [T3-CLK-N]	–	–	1	–	0	0	1	0	0	0	0	0	1	1	–	–	–	–	–
COc1ccc(-c2ccc3c(N4CCOCC4)nc(N4C[C@@H](C)O[C@@H](C)C4)nc3n2)cc1CO [Ku-0063794]	0	1	1	–	0	0	–	0	0	0	0	–	–	–	–	–	–	–	–
CNc1cc(Oc2cc(C(=O)Nc3cc(N4CCN(C)CC4)cc(C(F)(F)F)c3)ccc2C)ncn1	0	0	0	–	0	0	–	0	0	0	0	1	–	–	–	–	–	–	–
CNC(=O)c1ccc(Nc2nc(OC3CCCC3)c3c(-c4ccc5nc(C)oc5c4)c[nH]c3n2)c(OC)c1	–	–	1	–	0	0	1	0	0	0	0	–	–	–	–	–	–	–	–
O=C(Nc1ccc(Cl)cc1)Nc1cccc(-c2cccc(N3CCCC3)n2)c1	0	–	0	–	0	0	0	0	0	0	0	–	–	–	1	–	–	–	–
S=C(NCCCc1c[nH]cn1)NCCCN(Cc1ccc(Cl)c(Cl)c1)c1ccc(Br)cn1	–	-1	0	–	0	0	0	0	0	0	0	–	–	–	–	0	–	–	–
Cc1ccc2nc(NCCN)c3ncc(C)n3c2c1.O=C(O)C(F)(F)F.O=C(O)C(F)(F)F	0	0	0	–	0	0	1	0	0	0	0	–	–	–	0	–	–	–	–
Cl.Oc1ccc2c3c1O[C@H]1c4[nH]c5c(c4C[C@@]4(O)[C@@H](C2)N(CC2CC2)CC[C@]314)C[C@@]1(O)[C@H]2Cc3ccc(O)c4c3[C@@]1(CCN2CC1CC1)[C@H]5O4	0	0	1	0	1	1	–	1	1	1	1	–	0	0	0	–	–	–	0
CCN1CCN(c2ccc(Nc3cc(N(C)C(=O)Nc4c(Cl)c(OC)cc(OC)c4Cl)ncn3)cc2)CC1 [INFIGRATINIB]	–	1	0	–	0	0	–	0	0	0	0	0	–	–	–	–	–	–	–
NC(=O)c1cccc(-c2cc(Nc3ccc(OC(F)(F)F)cc3)ncn2)c1	–	1	0	–	1	1	–	0	0	0	0	1	0	0	0	–	–	–	–
O=C1NC(=O)C(c2cnc3ccccn23)=C1c1cn2c3c(cc(F)cc13)CN(C(=O)N1CCCCC1)CC2 [LY-2090314]	0	0	0	–	0	0	–	0	–	1	1	–	–	–	0	–	–	0	0
CCc1cccc(CC)c1NC(=O)c1nn(C)c2c1CCc1cnc(Nc3ccc(N4CCN(C)CC4)cc3OC)nc1-2	–	1	0	–	0	0	0	0	0	0	0	0	–	–	–	–	–	–	–
CCN(CC)S(=O)(=O)Nc1cccc(-c2ccc3c(NC(=O)C4CC4)n[nH]c3c2)c1	0	0	0	–	0	0	–	0	0	0	0	–	–	–	0	–	–	–	–
COc1cccc2cc(-c3nc([C@H]4CC[C@H](C(=O)O)CC4)n4ncnc(N)c34)[nH]c12 [OSI-027]	1	1	1	–	0	0	–	0	0	0	0	–	1	–	1	–	–	–	–
CCn1cc(-c2ccnc3[nH]c(-c4cccc(CN(C)C)c4)cc23)c(-c2ccc(NC(=O)N(C)C)cc2)n1 [GSK-1070916]	1	0	0	–	0	0	1	0	0	0	0	–	–	–	–	–	–	–	–

Source: ChEMBL document CHEMBL4689842, “EUbOPEN Chemogenomics Library wave 1” (2021)
